From patent US20140017302A1, “OPTIMISED PREPARATIONS OF HIGHLY ADAPTABLE AGGREGATES” (priority 2011, published 2014)

What was measured:
[1] = cited from earlier work; for pK (first value): buffer/salt of Table 1
[2] = Vesicularisation time: sonication of a crude suspension until opalescent/transparent, followed by turbidity; type: physicochemical
Text: The term aggregate “adaptability” is herein closely related to “deformability” and can be measured using previously described methods (e.g. Wachter et al., 2008, J. Drug Targeting 16: 611). In principle, most of these methods assess the penetration of a nanoporous, semipermeable barrier by the tested aggregates in a suspension, presuming no significant aggregate fragmentation during penetration. In an alternative method, the kinetics of aggregate fragmentation under greater external stress is studied, e.g., during ultrasonication. An aggregate is considered to have an ultradeformable bilayer for purposes of the invention if its adaptability is close to or at about the highest value achievable without an appreciable, and normally spontaneous, aggregate fragmentation into smaller structures, e.g. micelles.
The term “vesicularisation time” refers to the time required to transform an originally opaque suspension (i.e. having an optical density >>3) to an opalescent/transparent suspension with a much lower optical density using external stress, e.g. generated with an ultrasound transducer, high-shear homogeniser (Ultra-Turrax®, IKA) or rotor-stator homogeniser. […]
A first consideration is that the chosen pH is far enough from the tested aggregate surface pKa,mem to exclude ionisation changes during a test; otherwise, experiments must be conducted at two or more constant, yet different, pH values and then analysed together allowing for the pH effects. […]
In a simpler and more qualitative alternative assay, one compares the test sample turbidity with an appropriate opalescent/transparent reference suspension turbidity. A series of readings taken for each representative sample at different times can likewise reveal temporal stability. Experimental data generated with this method confirmed the independency of the conclusions drawn from individual turbidity readouts for the preparations of the invention: within experimental error limits, the difference between the time required to generate more or less, but always similarly turbid suspension is generally the same. […]

[3] = Drug payload limit: terbinafine concentration at minimum vesicularisation time (FIG. 1 inset); type: physicochemical; conditions: for payload (concentration at minimum vesicularisation time): phosphatidylcholine vesicles + 5 wt.-% ethanol, azeleate buffer 0.05 M
Text: FIG. 1 is a schematic representation of experiments carried out to show an effect of buffer (ionic additive) selection on the vesicularisation time of reference (i.e. containing >90% pure soybean phosphatidylcholine) vesicles and of vesicles loaded with terbinafine as a function of the bulk pH. The results of an additional test series, in which an increasing amount of terbinafine was incorporated into phosphatidylcholine vesicles (at 10 wt-%-terbinafine concentration+5 wt.-% ethanol) dispersed in azeleate buffer (0.05 M) are shown in the Inset for pH=4.55±0.1 (diamonds) and pH=3.6±0.1 (down-arrow).

[4] = T=310 K, phospholipid plus drug ~10 w-%

Compound | pK1 ([1]; buffer of Table 4) | pK (first value) [1] | pK2 ([1]; buffer of Table 4) | other results
OCCN1CCCC1 [1-Pyrrolidineethanol (epolamine), 1-Pyrrolidineethanol] | 9.8 | 9.8 |  | 
CC(=O)O [Acetic acid] |  | 4.8 |  | 
O=C(O)CN(CCO)CCO [Bicine] | 8.5 |  | 1.9 | 
OCCN(CCO)C(CO)(CO)CO [Bis-TRIS] | 6.5 |  |  | 
C[N+](C)(C)CCO.[Cl-] [Choline, chloride] | 13.9 |  |  | 
CCNCC [Diethylamine] | 10.6 |  |  | 
O=C(O)[C@H](O)[C@@H](O)[C@H](O)[C@H](O)CO [Gluconic acid] |  | 3.6 |  | 
O=S(=O)(O)CCN1CCN(CCO)CC1 [HEPES] | 7.6 |  | 1.7 | 
Cl [Hydrochloric acid, sodium, Hydrochloric acid] |  | −9.3 |  | 
c1c[nH]cn1 [Imidazole] | 14.5 | 6.9 | 6.9 | 
NCCCC[C@H](N)C(=O)O [Lysine] | 10.5 |  | 9.1 | pK3 ([1]; buffer of Table 4): 2.2
OCCN1CCOCC1 [Morpholinoethanol] | 7.4 | 7.4 |  | 
O=S(=O)(O)CCN1CCN(CCS(=O)(=O)O)CC1 [PIPES] | 7.1 |  | 0.4 | 
O=C1CC[C@@H](C(=O)O)N1 [Pyroglutamic acid (pidolic acid), Pyroglutamic acid] |  | 3.5 |  | 
[Na+].[OH-] [Sodium hydroxyde, NaCl, Sodium hydroxyde] |  | 13.0 |  | 
O=S(=O)(O)O [Sulphuric acid] | −3 |  | 1.9 | 
O=C(O)CNC(CO)(CO)CO [Tricine] | 8.2 |  | 2.3 | 
O=C(O)CCCCCCCC(=O)O [azaleic acid, Azelaic acid] |  |  |  | log P [1]: > 1
O=C(c1ccccc1)c1ccc2n1CCC2C(=O)O (stereo not drawn) [ketorolac, reference compound] |  |  |  | log Pmem^I ([1]; best estimates): ~0.8; log Pmem^N ([1]; best estimates): ~2.3; pK ([1]; best estimates): 3.5; pKa,mem ([1]; best estimates): ~5.5
Cc1ccc(S(=O)(=O)O)cc1 [p-Toluenesulfonic acid] |  | 0.7 |  | 
CN(C/C=C/C#CC(C)(C)C)Cc1cccc2ccccc12 [terbinafine] |  |  |  | vesicularisation time ([2]; 10 wt.-% total amphipat including 20 rel-% terbinafine, phosphate buffer, pH~4.4): exceeds 200 s; sonication time (vesicularisation time) ([2]; terbinafine + phosphatidylcholine, 0.1 M phosphate buffer, pH=5.7, fails to produce small aggregates above the precipitate): exceeding 1400 s; time needed to prepare drug-loaded aggregates ([2]; terbinafine + phosphatidylcholine, phosphate buffer, pH=5.2): around 700 s; payload limit (concentration at minimum vesicularisation time) ([3]; aggregate suspensions in phosphate buffer of comparable pH): < 10 wt.-%; higher payload in azeleate buffer compared with phosphate buffer ([3]; comparable pH): at least 50%; payload (concentration at minimum vesicularisation time) ([3]; pH=3.6): ~20%; payload (concentration at minimum vesicularisation time) ([3]; pH=4.55): ~15%; de/protonation constant in a membrane, pKa,mem [1, 4]: 5.5; de/protonation constant in the bulk, pK [1, 4]: 7.05; water-membrane partition ratio, ionised drug form, log Pmem^I [1, 4]: 3.78; water-membrane partition ratio, neutral drug form, log Pmem^N [1, 4]: 5.19
